# Data reported in US8211465B2, “Immediate release and sustained release ibuprofen dosing regimen” (McNeil-PPC, Inc., priority 2007, dated 2012).
# Tested on: moderate to severe post-operative dental pain
# Assay: PK/PD dental pain study, 12 hour observation period
# Description: A double-blind, randomized, parallel, placebo-controlled, single center, PK/PD dental pain study was conducted over a 12 hour observation period to evaluate the pharmacokinetic, pharmacodynamic, efficacy and safety profiles of certain ibuprofen dosing regimens. Specifically, a single dose of 600 mg ibuprofen extended release caplets was compared with equivalent total doses of ibuprofen immediate release 200 mg caplets administered in three different dosing regimens as well as placebo in the treatment of moderate to severe post-operative dental pain. […] One sub-group of patients had both pharmacokinetic and pharmacodynamic evaluation (PK group). The other sub-group of patients had only the analgesic efficacy evaluations (non-PK group). Patients from both subgroups were assigned at random to one of the five following treatments:
# A stopwatch technique was used to measure the onset of meaningful pain relief.
smiles,measurement,setting,value
"CC(C)Cc1ccc(C(C)C(=O)O)cc1 (stereo not shown) [ibuprofen, 2-(4-isobutylphenyl)-propionic acid]",pain relief during the first four hours,"400/200/0 regimen: immediate release 400 mg at 0 hour, 200 mg at 4 hours",superior pain relief over the other treatments
same,pain relief over the entire 12-hour study period,"400/200/0 regimen: immediate release 400 mg at 0 hour, 200 mg at 4 hours, dental pain patients",excellent pain relief
same,pain relief scores during the 4 to 12 hour interval,"400/200/0 regimen, no further ibuprofen after the first four hours",highest pain relief scores
same,pain relief during the first four hours,600/0/0 immediate release treatment: 600 mg single dose at 0 hour,superior pain relief over the other treatments
